In PMC5391289 (Nature chemical biology, 2017) one finds growth-suppressive activity data, which are given here for 6 sequences.

Ends that are not written are not given here.

One test deals with panel of bacteria. As to the kind of experiment: Broth microdilution antimicrobial assay. The format is cell-based. To be noted: all organisms tested, 100 µM to 49 nM compound, 37 °C, no visible growth after 18 h (24 h M. smegmatis), at least 2 replicates.
A further test has as its system E. coli MC4100. As to the kind of experiment: Broth microdilution antimicrobial assay. Type of test: cell-based, Escherichia coli. To be noted: Mueller-Hinton broth, 100 µM to 49 nM, 37 °C, 18 h, at least 2 replicates.
The next test deals with Bacillus subtilis 168. As to the kind of experiment: Broth microdilution antimicrobial assay. The format is cell-based. To be noted: Mueller-Hinton broth, 100 µM to 49 nM, 37 °C, 18 h, at least 2 replicates.
Test [1] concerns Bacillus anthracis Sterne. Type of test: cell-based.
In test [2] the test system is Mycobacterium smegmatis NRRL B-14616. As to the kind of experiment: Broth microdilution antimicrobial assay. To be noted: Mueller-Hinton broth, 100 µM to 49 nM, 37 °C, 24 h, at least 2 replicates. Type of test: cell-based.
Test [3] deals with Enterococcus faecium U503 (VRE). As to the kind of experiment: Broth microdilution antimicrobial assay. Type of test: cell-based. Conditions: Mueller-Hinton broth, 100 µM to 49 nM, 37 °C, 18 h, at least 2 replicates.

Consider “SYHWGDYHDWHHGWYGWWDD (also: lariat or depsi (positions not given here)) [moomysin]”, for which, in the test on panel of bacteria, the growth-suppressive activity entry is given as “lacked growth suppressive activity towards all organisms tested”.
As to “GFIGWGNDIFGHYSGG (also: lariat or depsi (positions not given here)) [anantin B2]”, the growth-suppressive activity result with E. coli MC4100 was “weak activity”; in the test on Bacillus subtilis 168, “moderately active”.
For “GFIGWGNDIFGHYSGGF (also: lariat or depsi (positions not given here)) [anantin B1]”, the growth-suppressive activity result in the test on E. coli MC4100 is “weak activity”.
On to “LLGLAGNDRLVLSKN (also: lariat or depsi (positions not given here)) [Citrulassin A]”, for which the growth-suppressive activity entry in the test on panel of bacteria is listed as “lacked growth suppressive activity towards all organisms tested”.
In the case of “GRPNWGFENDWSCVRVC (also: bicyclic or more (positions not given here)) [LP2006]”, the growth-suppressive activity entry (in test [1]; in test [2]; in the test with Bacillus subtilis 168; in test [3]) was “active” throughout.
Regarding “LAGQGSPDLLGGHSLL (also: lariat or depsi (positions not given here)) [lagmysin]”, the growth-suppressive activity result with panel of bacteria was “lacked growth suppressive activity towards all organisms tested”.
